From PMC9120017, “Inhibition mechanism of the chloride channel TMEM16A by the pore blocker 1PBC” (Nature Communications, 2022)
Read-outs that look alike come from different tables or passages of the source.

Target: T1, mouse TMEM16A mutant V511A (Mus musculus, UniProt Q8BHY3, V511A)
T1 construct: expressed in transfected cells; host or cells: HEK293T
T1 sequence (Q8BHY3 1-960 V511A): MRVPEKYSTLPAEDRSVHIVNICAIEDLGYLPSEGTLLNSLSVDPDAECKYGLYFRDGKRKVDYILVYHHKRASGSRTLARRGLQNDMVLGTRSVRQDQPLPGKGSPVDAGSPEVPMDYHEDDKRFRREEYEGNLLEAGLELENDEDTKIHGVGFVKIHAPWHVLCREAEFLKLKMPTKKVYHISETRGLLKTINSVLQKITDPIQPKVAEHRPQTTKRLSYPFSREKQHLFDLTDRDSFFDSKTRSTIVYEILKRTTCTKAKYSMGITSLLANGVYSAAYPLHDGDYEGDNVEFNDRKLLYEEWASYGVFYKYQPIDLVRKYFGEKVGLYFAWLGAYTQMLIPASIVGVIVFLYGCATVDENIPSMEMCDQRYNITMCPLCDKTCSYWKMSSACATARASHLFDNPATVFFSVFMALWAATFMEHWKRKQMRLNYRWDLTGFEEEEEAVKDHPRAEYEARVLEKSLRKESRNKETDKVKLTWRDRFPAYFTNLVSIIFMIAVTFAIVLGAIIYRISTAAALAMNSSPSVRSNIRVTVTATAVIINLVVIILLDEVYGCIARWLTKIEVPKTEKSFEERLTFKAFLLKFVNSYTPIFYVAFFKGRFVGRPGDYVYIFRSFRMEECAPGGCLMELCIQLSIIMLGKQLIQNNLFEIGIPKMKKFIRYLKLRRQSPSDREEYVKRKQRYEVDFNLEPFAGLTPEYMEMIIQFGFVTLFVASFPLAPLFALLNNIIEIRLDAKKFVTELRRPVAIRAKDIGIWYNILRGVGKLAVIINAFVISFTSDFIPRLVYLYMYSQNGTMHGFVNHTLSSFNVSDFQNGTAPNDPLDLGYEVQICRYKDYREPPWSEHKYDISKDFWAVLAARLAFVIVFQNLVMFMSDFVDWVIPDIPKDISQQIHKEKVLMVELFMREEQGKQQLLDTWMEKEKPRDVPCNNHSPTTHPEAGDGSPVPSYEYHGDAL
Test: Inside-out patch recording of 1PBC block, mutant V511A
Assay type: cell-based
Conditions: for remaining activity at 3 µM: 1PBC 3; for remaining activity at 3 µM / remaining activity at 10 µM / remaining activity at 30 µM / remaining activity at 100 µM: read-out: fraction of unblocked current; for remaining activity at 10 µM: 1PBC 10; for remaining activity at 30 µM: 1PBC 30; for remaining activity at 100 µM: 1PBC 100
Description: HEK293T cells (ATCC CRL-1573) were maintained in Dulbecco’s modified Eagle’s medium (DMEM; Sigma-Aldrich) supplemented with 10 U ml^−1 penicillin, 0.1 mg ml^−1 streptomycin (Sigma-Aldrich), 2 mM L-glutamine (Sigma-Aldrich), and 10% FBS (Sigma-Aldrich) in a humidified atmosphere containing 5% CO2 at 37 °C. HEK293S GnTI^− cells (ATCC CRL-3022) were maintained in HyClone HyCell TransFx-H medium (GE Healthcare) supplemented with 10 U ml^−1 penicillin, 0.1 mg ml^−1 streptomycin, 4 mM L-glutamine, 0.15% poloxamer 188 (Sigma-Aldrich), and 1% FBS in an atmosphere containing 5% CO2 at 185 rpm at 37 °C. The ac splice variant of mouse TMEM16A (UniProt ID: Q8BHY3), mouse TMEM16B (UniProt ID: Q8CFW1), or mouse TMEM16F (UniProt ID: Q6P9J9) bearing a 3C cleavage site, a Venus YFP, a Myc tag, and a Streptavidin-binding peptide (SBP) downstream of the open reading frame in a modified pcDNA3.1 vector (Invitrogen) were used as described previously[21],[31]. Mutations were introduced using a modified QuikChange method[58] and were verified by sequencing.
HEK293T cells were transfected with 3–4 μg DNA per 6 cm Petri dish using the calcium phosphate co-precipitation method and were used within 24–96 h after transfection. Recordings were performed on inside-out patches excised from HEK293T cells expressing the construct of interest. Patch pipettes were pulled from borosilicate glass capillaries (O.D. 1.5 mm, I.D. 0.86 mm, Sutter Instrument) and were fire-polished with a microforge (Narishige) before use. Pipette resistance was typically 3–8 MΩ when filled with the recording solutions detailed below. Seal resistance was typically 4 GΩ or higher. Voltage-clamp recordings were made using Axopatch 200B, Digidata 1550, and Clampex 10.7 (Molecular Devices). Analog signals were filtered with the in-built 4-pole Bessel filter at 10 kHz and were digitized at 20 kHz. Solution exchange was achieved using a gravity-fed system through a theta glass pipette mounted on an ultra-fast piezo-driven stepper (Siskiyou). […] All recordings were performed at 20 °C.
A symmetrical ionic condition was used throughout. Stock solution with Ca^2+-EGTA contained 150 mM NaCl, 5.99 mM Ca(OH)2, 5 mM EGTA, and 10 mM HEPES at pH 7.40. Stock solution with EGTA contained 150 mM NaCl, 5 mM EGTA, and 10 mM HEPES at pH 7.40. Free Ca^2+ concentrations were adjusted by mixing the stock solutions at the required ratios calculated using the WEBMAXC program (http://web.stanford.edu/~cpatton/webmaxcS.htm). Patch pipettes were filled with the stock solution with Ca^2+-EGTA, which has a free Ca^2+ concentration of 1 mM. 1PBC (ChemBridge) stock was reconstituted in anhydrous DMSO (Sigma-Aldrich) at 100 mM and stored at −20 °C. Working solutions with 1PBC were prepared by serial dilution. Unless otherwise stated, experiments were performed at a saturating Ca^2+ concentration as shown in Supplementary Table 1 and the primary data were corrected for current rundown as described previously[21],[25].
Concentration-response relations, obtained from the ratio of the I-V plots before and after the application of the blocker, were fitted to the Hill equation,1 I/Imax=1/1+IC50/[blocker]^h where I/Imax is the normalized current responses, IC50 defines the concentration at which inhibition is at its half-maximum, and h is the Hill coefficient.

## N#Cc1c(C(F)(F)F)cc(O)n2c1nc1ccccc12 [1PBC]
0 mV, 2 µM Ca2+
  IC50: 20.8 µM
0 mV
  remaining activity at 3 µM: 87.8%
  remaining activity at 10 µM: 68%
  remaining activity at 30 µM: 40.9%
  remaining activity at 100 µM: 16.5%
20 mV
  remaining activity at 3 µM: 84.4%
  remaining activity at 10 µM: 62.6%
  remaining activity at 30 µM: 35.2%
  remaining activity at 100 µM: 13.8%
40 mV
  remaining activity at 3 µM: 80.2%
  remaining activity at 10 µM: 56.1%
  remaining activity at 30 µM: 30.5%
  remaining activity at 100 µM: 11.5%
60 mV
  remaining activity at 3 µM: 77.1%
  remaining activity at 10 µM: 50.6%
  remaining activity at 30 µM: 26.5%
  remaining activity at 100 µM: 10.1%
80 mV
  remaining activity at 3 µM: 73.1%
  remaining activity at 10 µM: 45.9%
  remaining activity at 30 µM: 24%
  remaining activity at 100 µM: 9.26%
  log-fold IC50 (change of mutant vs WT): 0.5163
100 mV
  remaining activity at 3 µM: 70.9%
  remaining activity at 10 µM: 43.5%
  remaining activity at 30 µM: 22.5%
  remaining activity at 100 µM: 9.4%
120 mV
  remaining activity at 3 µM: 69.6%
  remaining activity at 10 µM: 41.9%
  remaining activity at 30 µM: 22.7%
  remaining activity at 100 µM: 9.52%
140 mV
  remaining activity at 3 µM: 70.4%
  remaining activity at 10 µM: 42.2%
  remaining activity at 30 µM: 23.4%
  remaining activity at 100 µM: 9.88%
-20 mV
  remaining activity at 3 µM: 91.2%
  remaining activity at 10 µM: 73.3%
  remaining activity at 30 µM: 46.5%
  remaining activity at 100 µM: 19.3%
-40 mV
  remaining activity at 3 µM: 93%
  remaining activity at 10 µM: 78.6%
  remaining activity at 30 µM: 52.4%
  remaining activity at 100 µM: 23.1%
-60 mV
  remaining activity at 3 µM: 94.7%
  remaining activity at 10 µM: 82.2%
  remaining activity at 30 µM: 58.4%
  remaining activity at 100 µM: 28.5%
-80 mV
  remaining activity at 3 µM: 95.6%
  remaining activity at 10 µM: 84.9%
  remaining activity at 30 µM: 63.9%
  remaining activity at 100 µM: 33.3%
-100 mV
  remaining activity at 3 µM: 95.2%
  remaining activity at 10 µM: 86.6%
  remaining activity at 30 µM: 68.3%
  remaining activity at 100 µM: 37.9%
-120 mV
  remaining activity at 3 µM: 95.6%
  remaining activity at 10 µM: 87%
  remaining activity at 30 µM: 71.3%
  remaining activity at 100 µM: 41.7%
-140 mV
  remaining activity at 3 µM: 94.5%
  remaining activity at 10 µM: 87.7%
  remaining activity at 30 µM: 72.9%
  remaining activity at 100 µM: 44.8%
20 mV, 2 µM Ca2+
  IC50: 16.4 µM
40 mV, 2 µM Ca2+
  IC50: 12.8 µM
60 mV, 2 µM Ca2+
  IC50: 10.4 µM
80 mV, 2 µM Ca2+
  IC50: 8.67 µM
100 mV, 2 µM Ca2+
  IC50: 7.86 µM
120 mV, 2 µM Ca2+
  IC50: 7.49 µM
140 mV, 2 µM Ca2+
  IC50: 7.71 µM
-20 mV, 2 µM Ca2+
  IC50: 26.3 µM
-40 mV, 2 µM Ca2+
  IC50: 33.3 µM
-60 mV, 2 µM Ca2+
  IC50: 42.3 µM
-80 mV, 2 µM Ca2+
  IC50: 52.4 µM
-100 mV, 2 µM Ca2+
  IC50: 62.9 µM
-120 mV, 2 µM Ca2+
  IC50: 72.1 µM
-140 mV, 2 µM Ca2+
  IC50: 79.5 µM
V511A, V 0 mV
  IC50: 20.8 µM
V511A, V 20 mV
  IC50: 16.4 µM
V511A, V 40 mV
  IC50: 12.8 µM
V511A, V 60 mV
  IC50: 10.4 µM
V511A, V 80 mV
  IC50: 8.67 µM
V511A, V 100 mV
  IC50: 7.86 µM
V511A, V 120 mV
  IC50: 7.49 µM
V511A, V 140 mV
  IC50: 7.71 µM
V511A, V -20 mV
  IC50: 26.3 µM
V511A, V -40 mV
  IC50: 33.3 µM
V511A, V -60 mV
  IC50: 42.3 µM
V511A, V -80 mV
  IC50: 52.4 µM
V511A, V -100 mV
  IC50: 62.9 µM
V511A, V -120 mV
  IC50: 72.1 µM
V511A, V -140 mV
  IC50: 79.5 µM
